The target in one data set is T1, human 5-HT1D receptor (Homo sapiens, UniProt P28221).
T1 construct: purchased Euroscreen; host or cells: CHO-K1
Briefly: Radioligand competition binding and kinetics, CHO-K1 membranes. As to the method: (§1) For kinetics of radioligand competitive binding, serial dilutions were performed from master solution in 100% DMSO to obtain intermediate concentrations 200-fold higher than the concentrations to be tested. Each test sample was diluted 100-fold in the assay buffer and dispensed into the test plate.
5-HT1D Radioligand Binding Assay
Assay buffer: 50 mM Tris (pH 7.4), 4 mM CaCl2, 0.1% ascorbic acid
Washing buffer: 50 mM Tris (pH 7.4)
Membrane: recombinant CHO-K1-5-HT1D membranes thawed on ice and diluted in assay buffer (10 μg/well)
Ligand: 5-HT (Sigma, H-9523)
Radioligand: [^3H]-CT (Perkin Elmer, TRK1038, diluted in assay buffer for a final concentration of 0.5 nM) Filter plate: GF/B Unifilter plate (Perkin Elmer, 6005177) presoaked in 0.5% PEI for 2 hours at RT.
(§2) Determination of the Kon constant. Radioligand association kinetics on each receptor were performed by adding in the wells of a 96 well plate 50 μL of radioligand and 50 μL of membrane extracts. The samples were incubated for the times reported in Table 3 below at a temperature optimized for each receptor and filtered over a filter plate. After washing the filters 5 times with 0.5 mL of ice-cold washing buffer, 50 μL of Microscint 20 (Packard) were added to the filters and the plates were incubated 15 min on an orbital shaker and then counted for 1 min/well. This allowed determination of the kobs for each radioligand. Association kinetics were performed at 5 different radioligand concentrations optimized for each receptor (see Table 3 below) to determine 5 different kobs. The different kobs were then plotted against the [radioligand] and the K. was calculated using the following equation: kon=(kobs−koff)[radioligand].
(§3) Determination of the Koff constant. Radioligand dissociation kinetics on each receptor were performed by adding in the wells of a 96 well plate 45 μL of radioligand and 45 μL of membrane extracts. The samples were incubated as reported in Table 4 below at a temperature optimized for each receptor until binding equilibrium was reached as determined by the association kinetics experiment. Then, 100 μL of cold competitor (reference ligand) were added at a 200 fold excess (final concentration) for the times reported in Table 4 at the optimized temperature. The samples were then filtered over a filter plate. After washing the filters 5 times with 0.5 mL of ice-cold washing buffer, 50 μL of Microscint 20 (Packard) were added to the filters and the plates were incubated 15 min on an orbital shaker and then counted for 1 min/well. This allowed determination of the koff for each radioligand.
(§4) Determination of IC50 and Ki constant for each test compound. Radioligand competition binding on each receptor were performed by adding in the wells of a 96 well plate […] of test compound at increasing concentration as reported in Table 5 below, 25 μL of radioligand and 25 μL of membrane extracts. The samples were incubated for 60 min (or 4 hours for a second experiment on 5-HT2B receptors) at a temperature optimized for each receptor and then filtered over a filter plate. After washing the filters 5 times with 0.5 mL of ice-cold washing buffer, 50 μL of Microscint 20 (Packard) were added to the filters and the plates were incubated 15 min on an orbital shaker and then counted for 1 min/well. The test compounds were tested in duplicate at the nanomolar concentrations reported below in Table 5.
Determination of kon and koff constants for each test compound. Each compound was first assessed in a pilot experiment to evaluate its effect on the kinetic binding of each receptor-radioligand pair. These pilot experiments were performed at on compound concentration and were composed of 10 time-points measurements in duplicate (2, 5, 10, 20, 30, 45, 60, 90, 120 and 150 minutes).
(In a radioligand displacement assay an active substance lowers the binding of a labelled ligand.)

In another data set the target is T2, human D2L receptor (Homo sapiens, UniProt P14416).
T2 construct: purchased Euroscreen; host or cells: CHO-K1
T2 sequence (P14416 whole entry): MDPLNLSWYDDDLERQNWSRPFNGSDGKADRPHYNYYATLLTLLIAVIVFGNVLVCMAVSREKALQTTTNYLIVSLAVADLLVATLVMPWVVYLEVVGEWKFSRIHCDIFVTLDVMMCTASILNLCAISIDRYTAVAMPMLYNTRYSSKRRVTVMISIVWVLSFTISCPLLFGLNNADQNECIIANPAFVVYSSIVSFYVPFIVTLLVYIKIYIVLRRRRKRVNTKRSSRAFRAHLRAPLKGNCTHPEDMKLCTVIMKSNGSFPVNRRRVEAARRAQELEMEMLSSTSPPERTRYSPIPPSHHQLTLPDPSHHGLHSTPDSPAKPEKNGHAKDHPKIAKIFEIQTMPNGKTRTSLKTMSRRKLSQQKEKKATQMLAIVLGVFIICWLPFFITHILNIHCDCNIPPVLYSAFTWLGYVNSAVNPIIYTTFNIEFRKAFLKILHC
Described as above. As to the method: as §1
D2L Radioligand Binding Assay
Assay buffer: 25 mM HEPES (pH 7.4), 5 mM MgCl2, 1 mM CaCl2, BSA protease free 0.5% Washing buffer: 25 mM HEPES (pH 7.4), 5 mM MgCl2, 1 mM CaCl2 Membrane: recombinant CHO-K1-D2L membranes thawed on ice and diluted in assay buffer (2 μg/well)
Ligand: Risperidone (Tocris Bioscience, 2865)
Radioligand: [^3H]-Spiperone (TRK818, diluted in assay buffer for a final concentration of 3 nM) Filter plate: GF/B Unifilter plate (Perkin Elmer, 6005177) presoaked in 0.5% PEI for 2 hours at RT.
as §2, §3, §4
Determination of kon and koff constants for each test compound. Each compound was first assessed in a pilot experiment to evaluate its effect on the kinetic binding of each receptor-radioligand pair. These pilot experiments were performed at on compound concentration and were composed of 10 time-points measurements in duplicate (2, 5, 10, 20, 30, 45, 60, 90, 120 and 150 minutes). […]

A further data set has as its target T3, human 5-HT1A receptor (Homo sapiens, UniProt P08908).
T3 construct: purchased Euroscreen; host or cells: CHO-K1
T3 sequence (P08908 1-422): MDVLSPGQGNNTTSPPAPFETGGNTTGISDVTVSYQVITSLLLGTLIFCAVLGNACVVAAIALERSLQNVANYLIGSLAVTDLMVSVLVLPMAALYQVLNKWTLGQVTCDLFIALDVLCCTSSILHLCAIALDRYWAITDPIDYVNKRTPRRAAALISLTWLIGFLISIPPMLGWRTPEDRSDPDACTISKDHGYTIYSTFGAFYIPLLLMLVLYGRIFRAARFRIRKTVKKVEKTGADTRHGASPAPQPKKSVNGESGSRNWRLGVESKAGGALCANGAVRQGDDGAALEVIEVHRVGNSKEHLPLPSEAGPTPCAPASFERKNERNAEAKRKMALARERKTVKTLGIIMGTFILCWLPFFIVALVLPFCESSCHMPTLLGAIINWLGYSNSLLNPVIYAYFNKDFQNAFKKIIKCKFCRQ
Described as above. As for the experimental part:
as §1
as §2, with “Association kinetics were performed at 5 different radioligand concentrations optimized for each receptor (see Table 3 below) to determine 5 different kobs.” left out
Determination of the Koff constant. […] The samples were incubated as reported in Table 4 below at a temperature optimized for each receptor until binding equilibrium was reached as determined by the association kinetics experiment. […] After washing the filters 5 times with 0.5 mL of ice-cold washing buffer, 50 μL of Microscint 20 (Packard) were added to the filters and the plates were incubated 15 min on an orbital shaker and then counted for 1 min/well. […]
Determination of IC50 and Ki constant for each test compound. […] After washing the filters 5 times with 0.5 mL of ice-cold washing buffer, 50 μL of Microscint 20 (Packard) were added to the filters and the plates were incubated 15 min on an orbital shaker and then counted for 1 min/well. […]
Determination of kon and koff constants for each test compound. Each compound was first assessed in a pilot experiment to evaluate its effect on the kinetic binding of each receptor-radioligand pair. […]

For data set [1] the following is noted: cited from earlier work.

Each structure is given as a SMILES string. Where two headings read alike, the source gives them in different places.

T1 sequence (P28221 whole entry): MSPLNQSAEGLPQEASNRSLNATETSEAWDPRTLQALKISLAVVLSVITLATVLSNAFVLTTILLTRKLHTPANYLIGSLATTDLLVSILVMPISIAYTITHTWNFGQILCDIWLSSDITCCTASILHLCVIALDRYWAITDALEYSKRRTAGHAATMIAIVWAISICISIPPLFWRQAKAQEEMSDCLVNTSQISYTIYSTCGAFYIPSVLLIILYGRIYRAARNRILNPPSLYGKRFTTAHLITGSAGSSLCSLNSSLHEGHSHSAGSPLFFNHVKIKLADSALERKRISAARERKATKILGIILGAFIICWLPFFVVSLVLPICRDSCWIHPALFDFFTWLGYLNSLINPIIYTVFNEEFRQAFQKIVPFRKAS

Regarding `CN1C[C@H](C(=O)N[C@]2(C)O[C@@]3(O)[C@@H]4CCC(O)N4C(=O)[C@H](Cc4ccccc4)N3C2=O)C[C@@H]2c3cccc4[nH]cc(c34)C[C@H]21` (stereo partly shown) [8′-OH DHE, 8′-Hydroxy-Dihydroergotamine], the “Avg Dissociation half-life” value was found to be 1.10 h at human 5-HT1D receptor (5-HT1D) and 0.15 h at human D2L receptor (D2L). Besides, the “Avg Koff” value came to 0.000175 s⁻¹ on human 5-HT1D receptor (5-HT1D) and 0.00127 s⁻¹ at human D2L receptor (D2L). The IC50 (commonly the concentration that inhibits the measured activity by half) is 0.8 nM on human 5-HT1D receptor (5-HT1D, [3H]-CT, read-out: IC50 from binding assay); 297 nM at human D2L receptor (D2L, [3H]-Spiperone, read-out: IC50 from binding assay); 0.43 nM at human 5-HT1A receptor (5-HT1A, [3H]-WAY100635, read-out: IC50 from binding assay). For the same compound, the “metabolite concentration relative to parent DHE” value in data set [1] (previous studies) is on record as 5 to 7 times.

For the compound `CN1C[C@H](C(=O)N[C@]2(C)O[C@@]3(O)[C@@H]4CCCN4C(=O)[C@H](Cc4ccccc4)N3C2=O)C[C@@H]2c3cccc4[nH]cc(c34)C[C@H]21` [DHE, Dihydroergotamine], the IC50 on human 5-HT1D receptor was 0.65 nM; on human D2L receptor, 231 nM; at human 5-HT1A receptor it was 0.27 nM. The “Avg Dissociation half-life” value on human 5-HT1D receptor (5-HT1D) worked out at 1.28 h; on human D2L receptor (D2L), 0.24 h. Besides, the koff (commonly the first-order rate constant of dissociation) was 0.00015 s⁻¹ at human 5-HT1D receptor (read-out: Avg Koff) and 0.000792 s⁻¹ on human D2L receptor (D2L). Besides, the serum half-life in data set [1] (serum) was 10 to 13 h.

Source of the values: patent publication US20150306096A1, “8'-HYDROXY-DIHYDROERGOTAMINE COMPOUNDS AND COMPOSITIONS” (MAP Pharmaceuticals, Inc., priority 2012, published 2015).
